Assay results as given in patent US8716437B2 (priority 2007, dated 2014).

Tests used:
[1] = system: Human CD3+ T cells
Protocol: 10^5 freshly isolated CD3′ T cells were activated using CD3/CD28 dynabeads (Dynal, USA) at a T cell:bead ratio of 1:1 in 200 ul of medium in 96 wells plate. Channel blockers diluted at different concentrations in PBS were added to the cells 1 h prior to stimulation (done in triplicate).
Human CD3′ T cells were stimulated with CD3/CD28 beads following incubation with different concentrations (from 0.1 to 100 nM) of MK and KTX. The activity of MK was compared to the activity of KTX that was previously described to block the channels (Beeton et al, JI 2001).

[2] = system: guinea pig ileum; test: Spontaneous motility (twitches) of guinea pig ileum strips; details: reference toxins 10 nM; mokatoxin-1 1-100 nM
[3] = system: guinea pig ileum; test: Intraluminal pressure measurement of peristaltic activity of guinea pig ileum; details: MgTX 10 nM; mokatoxin-1 1-100 nM
[4] = system: guinea pig ileum; details: J Pharmacol Exp Ther. 1999; cited from earlier work
[5] = molecular target: T1, Kv1.3 (Homo sapiens, UniProt P22001); test: Whole-cell patch-clamp of Kv1.3 currents in HEK293 cells, toxin-phage applied; type: cell-based; parameters: expressed in transfected cells; host or cells: HEK (HEK293) and COS cells; details: 0.1 nM toxin-displaying phage
T1 sequence (P22001 whole entry): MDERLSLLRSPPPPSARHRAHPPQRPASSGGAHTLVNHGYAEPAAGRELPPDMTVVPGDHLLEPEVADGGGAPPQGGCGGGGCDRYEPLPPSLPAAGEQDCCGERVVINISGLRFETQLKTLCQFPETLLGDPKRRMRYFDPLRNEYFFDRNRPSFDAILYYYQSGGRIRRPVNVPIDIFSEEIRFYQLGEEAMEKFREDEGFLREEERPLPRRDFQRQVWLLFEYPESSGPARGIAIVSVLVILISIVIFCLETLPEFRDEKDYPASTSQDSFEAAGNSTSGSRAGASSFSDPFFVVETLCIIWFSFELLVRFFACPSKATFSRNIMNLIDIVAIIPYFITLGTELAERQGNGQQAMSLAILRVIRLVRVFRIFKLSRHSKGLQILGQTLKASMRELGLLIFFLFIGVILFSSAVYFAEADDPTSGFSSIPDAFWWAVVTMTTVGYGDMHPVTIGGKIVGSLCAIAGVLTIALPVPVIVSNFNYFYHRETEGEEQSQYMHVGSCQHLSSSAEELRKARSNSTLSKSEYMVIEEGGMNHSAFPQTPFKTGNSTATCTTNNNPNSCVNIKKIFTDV
Protocol: […] […] Plasmids were transfected into cells with Lipofectamine 2000 (Invitrogen) according to the manufacturer's instructions. Experiments were performed at 24 hr. Whole-cell patch-clamp was performed using an Axopatch 200B amplifier and pCLAMP software (Molecular Devices, Union City, Calif.) at filter and sampling frequencies of 5 and 25 kHz respectively. Kv1.3 currents were evoked by 250 ms test pulses to 50 mV from −80 mV with a 5 second interpulse interval and studied in a bath solution comprising in mM: 1.3 CaCl2, 0.5 MgCl2, 0.4 MgSO4, 3.56 KCl, 0.44 KH2PO4, 139.7 NaCl, 0.34 Na2HPO4, 5.5 glucose, 10 HEPES adjusted to pH 7.4 with NaOH. […] Electrodes were coated with Sigmacote (Sigma) prior to use.
Electrophysiological recordings were performed with mokatoxin—0422 to confirm blocking of Kv1.3 channels. […] Plasmids were transfected into cells with Lipofectamine 2000 (Invitrogen) according to the manufacturer's instructions. Experiments were performed at 24 hrs. Whole-cell patch-clamp was performed using an Axopatch 200B amplifier and pCLAMP software (Molecular Devices, Union City, Calif.) at filter and sampling frequencies of 5 and 25 kHz respectively. […]

[6] = molecular target: T1, Kv1.3; test: Phage panning on live cells (HEK, COS) expressing Kv1.3 channels; type: binding; parameters: expressed in transfected cells; host or cells: HEK (HEK293) and COS cells
Description: In another example, receptors may be expressed in cells. For example, cells may be stably or transiently transfected with one or more receptors can be utilized as expressed in native tissues (Clackson and Lowman, Phage display. Oxford University Press, 2004; Barbas et al., Phage display. A laboratory manual. Cold Spring Harbor Laboratory Press, 2001; Sambrook et al., Molecular Cloning: A Laboratory Manual. Vols 1-3. Cold Spring Harbor Laboratory Press, 1989). In one example, HEK (mammalian human embryonic kidney) and COS cells expressing wild-type Kv1.3 or Kv1.3-PDZ domain chimera were employed, the latter target allowing a “double” panning (e.g., as a control or to enhance binding affinity) using phages expressing kaliotoxin-1 and/or PDZ-binder domain.
Panning may be performed by the binding of ligands to the receptors, followed by washes and ligand recovery. In one example, panning is performed according to standard methods of phage display (Clackson and Lowman, Phage display. Oxford University Press, 2004; Barbas et al., Phage display. A laboratory manual. Cold Spring Harbor Laboratory Press, 2001). Panning may be repeated until the desired enrichment is achieved. In addition, libraries can be pre-depleted on surfaces or cells that contain no receptors or on a receptor where the putative ligand receptor domain may be directly or indirectly altered. Additionally, any and all conditions of panning may be varied, altered or changed to achieve optimal results, such as the isolation of a specific ligand. Panning variations include, but are not limited to, the presence of competing ligand(s), presence of excess target(s), length and temperature of binding, pre-absorption of the ligand library on one or more different receptor(s) or cells or surfaces, composition of binding solution (e.g., ionic strength), stringency of washing, and recovery procedures. Phages recovered from panning may be processed for further rounds of panning, functional analysis, and/or sequencing/genotyping to deduce the resulting ligands' amino acid sequence or biological properties (Clackson and Lowman, Phage display. Oxford University Press, 2004; Barbas et al., Phage display. A laboratory manual. Cold Spring Harbor Laboratory Press, 2001).
5×10^11 phagemids were added to the cell cultures in “B.”
A library of KTX-like ligands, with a calculated diversity of greater than 11,000, was created de novo. The library comprised approximately 8% KTX-like ligands and 92% non-KTX-like ligands. The library of ligands was screened on Kv1.3 receptors expressed in HEK and COS cells.
Transfection efficiency was monitored with cotransfection of gene encoding for the green fluorescence protein (GFP) and observing the fluorescence after 1-2 days following transfection.
KTX and mokatoxin-1 are Kv1.3 specific scorpion toxins. […] Following incubation of the cells with the phages, cells were subjected to wash to remove the unbound/weakly bound phages. The remaining bound phages were eluted from the cells and transformed into XL1 E. coli, and plated onto LB plates with antibiotic selecting for the phagemids.

[7] = system: vector transfected cells; test: Phage panning on vector transfected cells (CONTROL); type: binding, human; details: one round of panning; calculated input 5:95%
Protocol: Following incubation of the cells with the phages, cells were subjected to wash to remove the unbound/weakly bound phages. The remaining bound phages were eluted from the cells and transformed into XL1 E. coli, and plated onto LB plates with antibiotic selecting for the phagemids. The following day, 19-20 colonies of transformed XL1 were randomly selected and genotyped to establish the relative ratio (i.e., its departure from the calculated initial input of 5:95%) of the two different phage species, before and after the panning.

[8] = one round of panning, calculated input 5:95%

For `CC[C@H](C)[C@H](N)C(=O)N[C@@H](CC(N)=O)C(=O)N[C@H](C(=O)N[C@@H](CCCCN)C(=O)N[C@H]1CSSC[C@@H]2NC(=O)[C@H](CCCCN)NC(=O)CNC(=O)[C@H](Cc3ccccc3)NC(=O)[C@H](CCCNC(=N)N)NC(=O)[C@H](CCSC)NC(=O)CNC(=O)[C@H](C)NC(=O)[C@H](CC(=O)O)NC(=O)[C@H](CCCCN)NC(=O)[C@@H]3CSSC[C@@H](C(=O)N[C@@H](Cc4ccc(O)cc4)C(=O)N[C@@H](CO)C(=O)O)NC(=O)[C@H](CCCNC(=N)N)NC(=O)[C@H](CSSC[C@H](NC(=O)[C@H](CCC(N)=O)NC(=O)[C@H](CCC(N)=O)NC(=O)[C@@H]4CCCN4C(=O)[C@H](CC(C)C)NC(=O)[C@H](CO)NC1=O)C(=O)N[C@@H]([C@@H](C)CC)C(=O)N[C@@H](CCCCN)C(=O)N1CCC[C@H]1C(=O)N3)NC(=O)[C@H](CCCCN)NC(=O)[C@H](CCCCN)NC(=O)[C@H](CC(N)=O)NC(=O)[C@H](CCSC)NC2=O)C(C)C` [MK-1, mokatoxin-1], the cell viability [1] was “no reduction of cell viability”.

For Margatoxin, the “induction of twitches in ileum strips” value [2] is listed as “induced twitches”, the “pressure threshold for initiation and frequency of peristaltic waves” value [3] is listed as “induced a lowering of the pressure threshold” and the ileum contractions [4] is listed as “contractions”.

In the case of mokatoxin-2, the “block of Kv1.3 channels expressed in mammalian cells” value [5] is reported as “blocks Kv1.3 channels”, the “share after the 2nd round of panning of the library on Kv1.3 cells” value ([6]; HEK, KTX scaffold combinatorial library, n=18) is reported as 11% and the “# of genotype (%), Test” value [6, 8] is reported as 90%. For the same molecule, the “# of genotype, Test” value [6, 8] was 18, the “# of genotype (%), Control” value [7] was 5% and the “# of genotype, Control” value [7] was 1.
